Reference: US7608619B2, “Substituted oxazole compounds with analgesic activity” (Gruenenthal GmbH, priority 2005, dated 2009)

Molecular target: T1, human μ-opiate receptor (Homo sapiens, UniProt P35372)
T1 construct: purchased Nen company, Zaventem, Belgium RB-HOM; host or cells: CHO-K1 cells (membrane preparation)
Experiment: Affinity for the human μ-opiate receptor ([3H]-naloxone displacement, SPA, CHO-K1 membrane preparation)
Details: test substance 1 μmole/l, displacement of 1 nmole/l [3H]-naloxone, percentage inhibition of the specific binding; for inhibition at 1 µM: read-out: μ-opioid receptor, % inhibition [1 μM]
Method: Method for Determining the Affinity for the Human μ-Opiate Receptor
The receptor affinity for the human μ-opiate receptor is determined in a homogeneous batch in microtiter plates. For this purpose dilution series of the substances to be tested are incubated for 90 minutes at room temperature with a receptor membrane preparation (15-40 μg protein/250 μl incubation batch) of CHO-K1 cells, which express the human μ-opiate receptor (RB-HOM receptor membrane preparation from the Nen company, Zaventem, Belgium), in the presence of 1 nmole/l of the radioactive ligand [^3H]-naloxone (NET719, Nen company, Zaventem, Belgium) and 1 mg WGA-SPA beads (wheat germ agglutinin SPA beads from Amersham/Pharmacia, Freiburg, Germany) in a total volume of 250 μl. 50 mmole/l of Tris-HCl supplemented with 0.05% sodium azide and with 0.06% bovine serum albumin is used as incubation buffer. In order to determine the non-specific binding, 25 μmole/l of naloxone is additionally added. After the end of the 90 minutes' incubation time the microtiter plates are centrifuged for 20 minutes at 1000 g and the radioactivity is measured in a beta counter (Microbeta-Trilux, PerkinElmer Wallac, Freiburg, Germany). The percentage displacement of the radioactive ligand from its binding to the human μ-opiate receptor at a concentration of the test substances of 1 μmole/l is determined and is given as percentage inhibition of the specific binding.

T1 sequence (P35372 whole entry): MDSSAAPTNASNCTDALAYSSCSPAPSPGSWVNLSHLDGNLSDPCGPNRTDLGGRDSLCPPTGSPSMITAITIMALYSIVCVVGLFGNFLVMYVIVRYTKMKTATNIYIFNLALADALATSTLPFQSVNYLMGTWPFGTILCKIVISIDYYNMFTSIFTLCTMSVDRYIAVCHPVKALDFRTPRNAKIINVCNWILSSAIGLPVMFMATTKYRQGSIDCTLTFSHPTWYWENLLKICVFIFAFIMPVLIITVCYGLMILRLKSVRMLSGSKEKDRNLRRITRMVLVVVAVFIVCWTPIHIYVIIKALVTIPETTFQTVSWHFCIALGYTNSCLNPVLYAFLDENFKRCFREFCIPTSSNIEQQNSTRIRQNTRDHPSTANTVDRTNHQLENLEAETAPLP

SMILES | inhibition at 1 µM [%] | μ-opioid receptor, % inhibition [1 μM] [%]
CN(C)C(c1cccs1)C1CCC(CC(c2nc(Cc3ccccc3)c(N3CCOCC3)o2)N2CCN(c3ccc(F)cc3)CC2)CC1 (centres unmarked) [compound 161, [(4-{2-(4-benzyl-5-morpholin-4-yl-oxazol-2-yl)-2-[4-(4-fluorophenyl)-piperazin-1-yl]-ethyl}-cyclohexyl)-thiophen-2-yl-methyl]-dimethylamine] | 87 | 
CN(C)C(c1ccc(F)cc1)C1CCC(CC(c2nc(Cc3ccccc3)c(N3CCSCC3)o2)N(C)c2ccccc2)CC1 (centres unmarked) [compound 104, (1-(4-benzyl-5-thiomorpholin-4-yl-oxazol-2-yl)-2-{4-[dimethylamino-(4-fluorophenyl)-methyl]-cyclohexyl}-ethyl)-methylphenylamine] | 89 | 
CC1CN(c2oc(C(CC3CCC(C(c4cccc(F)c4)N(C)C)CC3)N3CCOCC3)nc2Cc2ccccc2)CC(C)O1 (centres unmarked) [compound 152, [(4-{2-[4-benzyl-5-(2,6-dimethylmorpholin-4-yl)-oxazol-2-yl]-2-morpholin-4-yl-ethyl}-cyclohexyl)-(3-fluorophenyl)-methyl]-dimethylamine] | 65 | 
CC1CC(C)CN(c2oc(C(CC3CCC(C(c4cccs4)N(C)C)CC3)N3CCCCC3)nc2Cc2ccccc2)C1 (centres unmarked) [compound 107, [(4-{2-[4-benzyl-5-(3,5-dimethylpiperidin-1-yl)-oxazol-2-yl]-2-piperidin-1-yl-ethyl}-cyclohexyl)-thiophen-2-yl-methyl]-dimethylamine] | 84 | 
CN(Cc1ccccc1)c1oc(C(C2CCC(C(c3ccc(Cl)cc3)N(C)C)CC2)N(C)c2ccccc2)nc1Cc1ccccc1 (centres unmarked) [compound 22, Benzyl-{4-benzyl-2-[{4-[(4-chlorophenyl)-dimethylaminomethyl]-cyclohexyl}-(methylphenylamine)-methyl]-oxazol-5-yl}-methylamine] |  | 64
CCN(CC)C(CC1CCC(C(c2ccc(Cl)cc2)N(C)C)CC1)c1nc(Cc2ccccc2)c(N(C)Cc2ccccc2)o1 (centres unmarked) [compound 61, Benzyl-[4-benzyl-2-(2-{4-[(4-chlorophenyl)-dimethylaminomethyl]-cyclohexyl}-1-diethylamino-ethyl)-oxazol-5-yl]-methylamine] | 76 | 
CCN(CC)c1oc(C(CC2CCC(C(c3ccc(F)cc3)N(C)C)CC2)N(CC)CC)nc1Cc1ccccc1 (centres unmarked) [compound 98, [4-benzyl-2-(1-diethylamino-2-{4-[dimethylamino-(4-fluorophenyl)-methyl]-cyclohexyl}-ethyl)-oxazol-5-yl]-diethylamine] | 77 | 
CN(Cc1ccccc1)c1oc(C(CC2CCC(C(c3cccs3)N(C)C)CC2)N2CCN(Cc3ccccc3)CC2)nc1Cc1ccccc1 (centres unmarked) [compound 84, Benzyl-(4-benzyl-2-{1-(4-benzyl-piperazin-1-yl)-2-[4-(dimethylamino-thiophen-2-yl-methyl)-cyclohexyl]-ethyl}-oxazol-5-yl)-methylamine] | 88 | 
CC1CCCN(c2oc(C(CC3CCC(C(c4ccc(F)cc4)N(C)C)CC3)N3CCN(Cc4ccccc4)CC3)nc2Cc2ccccc2)C1 (centres unmarked) [compound 106, [{4-[2-[4-benzyl-5-(3-methylpiperidin-1-yl)-oxazol-2-yl]-2-(4-benzyl-piperazin-1-yl)-ethyl]-cyclohexyl}-(4-fluorophenyl)-methyl]-dimethylamine] | 61 | 
CCN(CC)C(CC1CCC(C(c2cccs2)N(C)C)CC1)c1nc(Cc2ccccc2)c(N2CCC(C)CC2)o1 (centres unmarked) [compound 79, {1-[4-benzyl-5-(4-methylpiperidin-1-yl)-oxazol-2-yl]-2-[4-(dimethylamino-thiophen-2-yl-methyl)-cyclohexyl]-ethyl}-diethylamine] | 97 | 
CCN(CC)C(c1nc(Cc2ccccc2)c(N2CCCC(C)C2)o1)C1CCC(C(c2cccs2)N(C)C)CC1 (centres unmarked) [compound 51, {[4-benzyl-5-(3-methylpiperidin-1-yl)-oxazol-2-yl]-[4-(dimethylamino-thiophen-2-yl-methyl)-cyclohexyl]-methyl}-diethylamine] | 100 | 
CC1CCCN(c2oc(C(CC3CCC(C(c4ccc(F)cc4)N(C)C)CC3)N(C)c3ccccc3)nc2Cc2ccccc2)C1 (centres unmarked) [compound 105, (1-[4-benzyl-5-(3-methylpiperidin-1-yl)-oxazol-2-yl]-2-{4-[dimethylamino-(4-fluorophenyl)-methyl]-cyclohexyl}-ethyl)-methylphenylamine] | 71 | 
COc1ccc(N2CCN(C(c3nc(Cc4ccccc4)c(N4CCOCC4)o3)C3CCC(C(c4ccc(Cl)cc4)N(C)C)CC3)CC2)cc1 (centres unmarked) [compound 135, [(4-{(4-benzyl-5-morpholin-4-yl-oxazol-2-yl)-[4-(4-methoxyphenyl)-piperazin-1-yl]-methyl}-cyclohexyl)-(4-chlorophenyl)-methyl]-dimethylamine] | 70 | 
CN(C)C(c1cccc(F)c1)C1CCC(C(c2nc(Cc3ccccc3)c(N3CCCC3)o2)N2CCN(c3ccc(F)cc3)CC2)CC1 (centres unmarked) [compound 122, [(4-{(4-benzyl-5-pyrrolidin-1-yl-oxazol-2-yl)-[4-(4-fluorophenyl)-piperazin-1-yl]-methyl}-cyclohexyl)-(3-fluorophenyl)-methyl]-dimethylamine] | 72 | 
CCN(CC)C(c1nc(Cc2ccccc2)c(N(C)CCc2ccccc2)o1)C1CCC(C(c2cccs2)N(C)C)CC1 (centres unmarked) [compound 49, (4-benzyl-2-{diethylamino-[4-(dimethylamino-thiophen-2-yl-methyl)-cyclohexyl]-methyl}-oxazol-5-yl)-methylphenethylamine] | 90 | 
CCN(CC)c1oc(C(CC2CCC(C(c3cccs3)N(C)C)CC2)N2CCCCC2)nc1Cc1ccccc1 (centres unmarked) [compound 109, (4-benzyl-2-{2-[4-(dimethylaminothiophen-2-yl-methyl)-cyclohexyl]-1-piperidin-1-yl-ethyl}-oxazol-5-yl)-diethylamine] | 98 | 
COc1ccc(N2CCN(c3oc(C(CC4CCC(C(c5cccc(F)c5)N(C)C)CC4)N4CCc5ccccc5C4)nc3Cc3ccccc3)CC2)cc1 (centres unmarked) [compound 157, [{4-[2-{4-benzyl-5-[4-(4-methoxy-phenyl)-piperazin-1-yl]-oxazol-2-yl}-2-(3,4-dihydro-1H-isoquinolin-2-yl)-ethyl]-cyclohexyl}-(3-fluorophenyl)-methyl]-dimethylamine] | 84 | 
CC1CCCN(c2oc(C(C3CCC(C(c4ccc(Cl)cc4)N(C)C)CC3)N3CCCCC3)nc2Cc2ccccc2)C1 (centres unmarked) [compound 40, [(4-{[4-benzyl-5-(3-methylpiperidin-1-yl)-oxazol-2-yl]-piperidin-1-yl-methyl}-cyclohexyl)-(4-chlorophenyl)-methyl]-dimethylamine] | 60 | 
CCN(CC)C(c1nc(Cc2ccccc2)c(N(C)Cc2ccccc2)o1)C1CCC(C(c2cccs2)N(C)C)CC1 (centres unmarked) [compound 30, Benzyl-(4-benzyl-2-{diethylamino-[4-(dimethylaminothiophen-2-yl-methyl)-cyclohexyl]-methyl}-oxazol-5-yl)-methylamine] | 92 | 
COc1ccc(N2CCN(C(c3nc(Cc4ccccc4)c(N4CCOCC4)o3)C3CCC(C(c4cccc(F)c4)N(C)C)CC3)CC2)cc1 (centres unmarked) [compound 124, [(4-{(4-benzyl-5-morpholin-4-yl-oxazol-2-yl)-[4-(4-methoxyphenyl)-piperazin-1-yl]-methyl}-cyclohexyl)-(3-fluorophenyl)-methyl]-dimethylamine] | 60 | 
